Each block holds one compound with its values, some of them ahead of it.
Columns and labels:
[1] = test system: soluble epoxide hydrolase (sEH); test: Fluorescent Assay for Mouse and Human Soluble Epoxide Hydrolase (CMNPC substrate); type: biochemical
Excerpt: Fluorescent Assay for Mouse and Human Soluble Epoxide Hydrolase Recombinant mouse sEH (MsEH) and human sEH (HsEH) were produced in a baculovirus expression system as previously reported. Grant et al., J. Biol. Chem., 268:17628-17633 (1993); Beetham et al., Arch. Biochem. Biophys., 305:197-201 (1993). The expressed proteins were purified from cell lysate by affinity chromatography. Wixtrom et al., Anal. Biochem., 169:71-80 (1988). Protein concentration was quantified using the Pierce BCA assay using bovine serum albumin as the calibrating standard. The preparations were at least 97% pure as judged by SDS-PAGE and scanning densitometry. They contained no detectable esterase or glutathione transferase activity which can interfere with the assay. The assay was also evaluated with similar results in crude cell lysates or homogenate of tissues. The IC50s for each inhibitor were according to the following procedure: [drawing 218] […] Jones P. D. et. al.; Analytical Biochemistry 2005; 343: pp. 66-75) Bis/Tris HCl 25 mM pH 7.0 containing 0.1 mg/mL of BSA (buffer […] at 0.25 mM in DMSO. Mother solution of enzyme in buffer A (Mouse sEH at 6 μg/mL and Human sEH at 5 μg/mL). Inhibitor dissolved in DMSO at the appropriate concentration. In a black 96 well plate, fill all the wells with 150 μL of buffer A. Add 2 μL of DMSO in well A2 and A3, and then add 2 μL of inhibitor solution in A1 and A4 through A12. Add 150 μL of buffer A in row A, then mix several time and transfer 150 μL to row B. Repeat this operation up to row H. The 150 μL removed from row H is discarded. Add 20 μL of buffer A in column 1 and 2, then add 20 μL of enzyme solution to column 3 to 12. Incubate the plate for 5 minutes in the plate reader at 30° C. During incubation prepare the working solution of substrate by mixing 3.68 mL of buffer A (4×0.920 mL) with 266 μL (2×133 μL) of substrate solution). At t=0, add 30 μL of working substrate solution with multi-channel pipette labeled “Briggs 303” and start the reading ([S]final: 5 μM). Read with ex: 330 nm (20 nm) and em: 465 nm (20 nm) every 30 second for 10 minutes. The velocities are used to analyze and calculate the IC50s. Tables 4-6 show the activity of compounds when tested with the assay at 50, 500, 5000, 50000, and 500000 nM.

[2] = test system: soluble epoxide hydrolase (sEH); test: Fluorescent Assay for Mouse and Human Soluble Epoxide Hydrolase (CMNPC substrate); type: biochemical; details: Concentration 2000 nM

Compound: O=C(Nc1cccc(OCc2ccccc2)c1)C(=O)C12CC3CC(CC(C3)C1)C2 [Compound 13, 2-Adamantan-1-yl-N-(3-benzyloxy-phenyl)-2-oxo-acetamide]
% Inhibition ([1]; Concentration 5000 nM): 86%
melting point: 106 to 107 °C

Compound: O=C(Nc1cccc(OCCCN2CCOCC2)c1)C(O)c1ccc(C(F)(F)F)cc1 (stereo not shown) [Compound 101, 2-Hydroxy-N-[3-(3-morpholin-4-yl-propoxy)-phenyl]-2-(4-trifluoromethyl-phenyl)-acetamide]
% Inhibition ([1]; Concentration 5000 nM): 95%

Compound: CCCC(=O)N1CCC(NC(=O)C(=O)C2CCCCC2)CC1 [Compound 16, N-(1-Butyryl-piperidin-4-yl)-2-cyclohexyl-2-oxo-acetamide]
% Inhibition ([1]; Concentration 50000 nM): 62%

Compound: Cc1ccc(S(=O)(=O)N2CCC(NC(=O)C(O)c3ccc(C(F)(F)F)cc3)CC2)cc1 (stereo not shown) [Compound 108, 2-Hydroxy-N-[1-(toluene-4-sulfonyl)-piperidin-4-yl]-2-(4-trifluoromethyl-phenyl)-acetamide]
% Inhibition ([1]; Concentration 50000 nM): 80%

Compound: O=C(CCC12CC3CC(CC(C3)C1)C2)C(=O)NCCc1ccc(OCc2ccccc2)cc1 [Compound 25]
% Inhibition [2]: 23%

Compound: O=C(CC12CC3CC(CC(C3)C1)C2)C(=O)Nc1ccc(OCc2ccccc2)cc1 [Compound 17, 3-Adamantan-1-yl-N-(4-benzyloxy-phenyl)-2-oxo-propionamide]
% Inhibition ([1]; Concentration 5000 nM): 64%

Compound: Cc1ccc(S(=O)(=O)N2CCC(NC(=O)C(=O)CC34CC5CC(CC(C5)C3)C4)CC2)cc1 [Compound 19, 3-Adamantan-1-yl-2-oxo-N-[1-(toluene-4-sulfonyl)-piperidin-4-yl]-propionamide]
% Inhibition ([1]; Concentration 5000 nM): 99%

Compound: O=C(CC12CC3CC(CC(C3)C1)C2)C(=O)Nc1cccc(OCc2ccccc2)c1 [Compound 15, 3-Adamantan-1-yl-N-(3-benzyloxy-phenyl)-2-oxo-propionamide]
% Inhibition ([1]; Concentration 5000 nM): 86%

More lines, now with the values ahead:

% Inhibition ([1]; Concentration 50000 nM): 98%
melting point: 219 to 220 °C
Compound: O=C(Nc1ccc(-n2ccnc2)cc1)C(O)C12CC3CC(CC(C3)C1)C2 (stereo not shown) [Compound 119, 2-Adamantan-1-yl-2-hydroxy-N-(4-imidazol-1-yl-phenyl)-acetamide]

% Inhibition ([1]; Concentration 500 nM): 79%
melting point: 130 to 132 °C
Compound: O=C(Nc1cccc(OCc2ccccc2)c1)C(O)C12CC3CC(CC(C3)C1)C2 (stereo not shown) [Compound 110, 2-Adamantan-1-yl-N-(3-benzyloxy-phenyl)-2-hydroxy-acetamide]

% Inhibition [2]: 81%
Compound: O=C(NCCc1ccc(C(=O)N2CCOCC2)cc1)C(O)CCC12CC3CC(CC(C3)C1)C2 (stereo not shown) [Compound 157, 4-Adamantan-1-yl-2-hydroxy-N-(4-(morpholine-4-carbonyl)phenethyl)butanamide]

% Inhibition ([1]; Concentration 5000 nM): 84%
Compound: Cc1ccc(S(=O)(=O)N2CCC(CNC(=O)C(O)C34CC5CC(CC(C5)C3)C4)CC2)cc1 (stereo not shown) [Compound 127, 2-Adamantan-1-yl-2-hydroxy-N-[1-(toluene-4-sulfonyl)-piperidin-4-ylmethyl]-acetamide]

% Inhibition ([1]; Concentration 5000 nM): 82%
Compound: Cc1ccc(S(=O)(=O)N2CCC(NC(=O)C(O)C3CCCCC3)CC2)cc1 (stereo not shown) [Compound 137, 2-Cyclohexyl-2-hydroxy-N-(1-tosylpiperidin-4-yl)acetamide]

% Inhibition ([1]; Concentration 5000 nM): 76%
Compound: O=C(NC1CCN(S(=O)(=O)c2ccc(Cl)cc2)CC1)C(O)CC12CC3CC(CC(C3)C1)C2 (stereo not shown) [Compound 148, N-(1-(4-Chlorophenylsulfonyl)piperidin-4-yl)-3-adamantan-1-yl-2-hydroxypropanamide]

% Inhibition ([1]; Concentration 500 nM): 78%
Compound: Cc1ccc(S(=O)(=O)N2CCC(NC(=O)C(O)CCC3CCCCC3)CC2)cc1 (stereo not shown) [Compound 140, 4-Cyclohexyl-2-hydroxy-N-(1-tosylpiperidin-4-yl)butanamide]

% Inhibition ([1]; Concentration 5000 nM): 70%
Compound: O=C(NCCc1ccc(OCc2ccccc2)cc1)C(O)CCc1ccc(C(F)(F)F)cc1 (stereo not shown) [Compound 139, N-(4-(Benzyloxy)phenethyl)-2-hydroxy-4-(4-(trifluoromethyl)phenyl)butanamide]
